Test results from the NIST ThermoML archive (doi:10.1021/je100089s).

Assay: xn = mol fraction of the nth substance listed
Conditions: Liquid, Vibrating tube method

OCCO [1,2-ethanediol] + C[S+](C)[O-]
mass density [kg/m3]
Conditions | 101 kPa | 10000 kPa | 25000 kPa | 50000 kPa | 75000 kPa | 100000 kPa
278.15 K, x2 = 0 | 1123.77 | 1127.65 | 1133.2 | 1141.71 | 1149.55 | 1157.24
278.15 K, x2 = 0.00452 | 1123.78 | – | – | – | – | –
278.15 K, x2 = 0.00721 | 1123.81 | – | – | – | – | –
278.15 K, x2 = 0.0181 | – | 1127.79 | 1133.35 | 1141.89 | 1149.87 | 1157.59
278.15 K, x2 = 0.01811 | 1123.89 | – | – | – | – | –
278.15 K, x2 = 0.03033 | 1123.98 | – | – | – | – | –
278.15 K, x2 = 0.04027 | 1124.05 | – | – | – | – | –
278.15 K, x2 = 0.0403 | – | 1127.98 | 1133.57 | 1142.21 | 1150.25 | 1158.01
278.15 K, x2 = 0.07007 | 1124.18 | – | – | – | – | –
278.15 K, x2 = 0.0701 | – | 1128.13 | 1133.74 | 1142.44 | 1150.68 | 1158.48
278.15 K, x2 = 0.1097 | 1124.31 | 1128.3 | 1133.94 | 1142.73 | 1151.17 | 1159.03
278.15 K, x2 = 0.1408 | 1124.41 | 1128.43 | 1134.12 | 1142.98 | 1151.53 | 1159.45
278.15 K, x2 = 0.1934 | 1124.41 | 1128.44 | 1134.19 | 1143.24 | 1151.93 | 1159.97
278.15 K, x2 = 0.234 | 1124.34 | 1128.39 | 1134.22 | 1143.4 | 1152.14 | 1160.33
278.15 K, x2 = 0.3244 | 1124.05 | 1128.13 | 1134.17 | 1143.66 | 1152.48 | 1160.9
278.15 K, x2 = 0.3764 | 1123.76 | 1127.85 | 1134.01 | 1143.73 | 1152.55 | 1161.23
278.15 K, x2 = 0.4429 | 1123.28 | 1127.37 | 1133.7 | 1143.69 | 1152.53 | 1161.47
278.15 K, x2 = 0.4892 | 1122.88 | 1126.97 | 1133.44 | 1143.64 | 1152.45 | 1161.74
278.15 K, x2 = 0.5654 | 1122.14 | 1126.24 | 1132.95 | 1143.45 | 1152.24 | 1162
278.15 K, x2 = 0.6298 | 1121.26 | – | – | – | – | –
278.15 K, x2 = 0.6946 | 1120.52 | – | – | – | – | –
288.15 K, x2 = 0 | – | 1120.87 | 1126.51 | 1135.26 | 1143.65 | 1151.55
288.15 K, x2 = 0.0181 | – | 1120.9 | 1126.66 | 1135.53 | 1143.78 | 1151.74
288.15 K, x2 = 0.0403 | – | 1121 | 1126.79 | 1135.69 | 1144 | 1152.03
288.15 K, x2 = 0.0701 | – | 1121.06 | 1126.89 | 1135.92 | 1144.4 | 1152.42
288.15 K, x2 = 0.1097 | – | 1121.09 | 1126.97 | 1136.1 | 1144.77 | 1152.92
288.15 K, x2 = 0.1408 | – | 1121.09 | 1127.02 | 1136.28 | 1145.05 | 1153.32
288.15 K, x2 = 0.1934 | – | 1121 | 1127.02 | 1136.35 | 1145.29 | 1153.81
288.15 K, x2 = 0.234 | – | 1120.87 | 1127.02 | 1136.51 | 1145.4 | 1154.03
288.15 K, x2 = 0.3244 | 1115.95 | 1120.42 | 1126.73 | 1136.43 | 1145.62 | 1154.61
288.15 K, x2 = 0.3764 | 1115.49 | 1119.99 | 1126.45 | 1136.4 | 1145.68 | 1154.78
288.15 K, x2 = 0.4429 | 1114.8 | 1119.41 | 1126.08 | 1136.29 | 1145.64 | 1154.83
288.15 K, x2 = 0.4892 | 1114.25 | 1118.92 | 1125.69 | 1136.07 | 1145.55 | 1154.79
288.15 K, x2 = 0.5654 | 1113.29 | 1118.05 | 1125.01 | 1135.67 | 1145.31 | 1154.87
288.15 K, x2 = 0.6298 | 1112.27 | – | – | – | – | –
288.15 K, x2 = 0.6946 | 1111.32 | 1116.19 | 1123.4 | 1134.56 | 1144.55 | 1154.68
288.15 K, x2 = 0.8142 | 1109.13 | – | – | – | – | –
298.15 K, x2 = 0 | – | 1113.97 | 1119.78 | 1128.78 | 1137.41 | –
298.15 K, x2 = 0.0181 | – | 1114 | 1119.85 | 1128.92 | 1137.62 | –
298.15 K, x2 = 0.0403 | – | 1114.01 | 1119.92 | 1129.12 | 1137.93 | –
298.15 K, x2 = 0.0701 | – | 1114.01 | 1119.95 | 1129.25 | 1138.31 | –
298.15 K, x2 = 0.1097 | – | 1113.67 | 1119.88 | 1129.29 | – | –
298.15 K, x2 = 0.1408 | 1109.42 | 1113.44 | 1119.71 | 1129.45 | – | –
298.15 K, x2 = 0.1934 | 1109.06 | 1112.87 | 1119.4 | 1129.48 | – | –
298.15 K, x2 = 0.234 | 1108.72 | 1112.42 | 1119.03 | 1129.27 | – | –
298.15 K, x2 = 0.3244 | 1107.82 | 1111.54 | 1118.39 | 1128.95 | – | –
298.15 K, x2 = 0.3764 | 1107.21 | 1110.95 | 1117.96 | 1128.79 | – | –
298.15 K, x2 = 0.4429 | 1106.29 | – | – | 1128.43 | – | –
298.15 K, x2 = 0.4892 | 1105.6 | 1109.49 | – | 1128.14 | – | –
298.15 K, x2 = 0.5654 | 1104.44 | 1108.61 | 1116.04 | 1127.67 | – | –
298.15 K, x2 = 0.6946 | 1102.13 | 1106.65 | 1114.43 | 1126.58 | – | –
298.15 K, x2 = 0.8142 | 1099.6 | 1104.54 | 1112.6 | 1125.27 | – | –
298.15 K, x2 = 0.867 | 1098.37 | – | – | – | – | –
298.15 K, x2 = 0.9266 | 1097.09 | – | 1110.81 | 1123.79 | – | –
298.15 K, x2 = 0.9836 | – | 1101.52 | – | 1123.02 | – | –
298.15 K, x2 = 0.9968 | 1095.42 | – | – | – | – | –
